Structures are written as SMILES.

The source of these data is patent US20090170851A1, “Chroman Compounds” (priority 2005, published 2009).

Turning to `CN1CCN(c2ccc(NC(=O)C3CCc4cc(F)cc(N5CCN(C)CC5)c4O3)cc2)CC1` (stereo not drawn) [Example 41, 6-fluoro-8-(4-methylpiperazin-1-yl)-N-(4-(4-methylpiperazin-1-yl)phenyl)chroman-2-carboxamide], the melting point was 150 to 160 °C.

In turn, `CCC(=O)N1CCN(c2ccc(NC(=O)C3CCc4cc(F)cc(N5CCN(C)CC5)c4O3)cc2)CC1` (stereo not drawn) [Example 32, 6-fluoro-8-(4-methylpiperazin-1-yl)-N-(4-(4-proprionyl-piperazin-1-yl)phenyl)chroman-2-carboxamide] came in with a melting point of 160 to 165 °C.

In the case of `COc1cc2c(c(N3CCN(C)CC3)c1)OC(C(=O)Nc1ccc(N3CCN(C)CC3)cc1)CC2` (stereo not drawn) [Example 35, 6-methoxy-8-(4-methylpiperazin-1-yl)-N-(4-(4-methylpiperazin-1-yl)phenyl)chroman-2-carboxamide], the melting point lay in the range of 180 to 190 °C.

By melting point is commonly meant the temperature, or range, at which the solid turns liquid.
